Experimental data as given in patent US10562893B2, “Benzimidazoles derivatives as Tec kinases family inhibitors” (GB005, Inc., priority 2015, dated 2020).

Tests used:
[1] = system: Jurkat human acute T cell leukemia cells; assay: Jurkat IL-2 release assay; type: cell-based; conditions: IL-2 release from Jurkat cells stimulated with anti-CD3 and anti-CD28, 48 hours, ELISA
Outline: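 Jurkat cells were pre-treated with compound curves 30 min at 37°C, then stimulated on plate-bound anti-CD3 (coated at 10 μg/mL) plus 1 μg/mL soluble anti-CD28 for 48 h. IL-2 in supernatant quantified by ELISA; EC50 from dose-response against vehicle-treated controls.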

ITK = ITK (Homo sapiens (Human), UniProt Q08881); assay: ITK kinase inhibition assay; type: biochemical; conditions: micro-fluidic detection, 3 hours at 25° C.
ITK, sequence (Q08881 whole entry): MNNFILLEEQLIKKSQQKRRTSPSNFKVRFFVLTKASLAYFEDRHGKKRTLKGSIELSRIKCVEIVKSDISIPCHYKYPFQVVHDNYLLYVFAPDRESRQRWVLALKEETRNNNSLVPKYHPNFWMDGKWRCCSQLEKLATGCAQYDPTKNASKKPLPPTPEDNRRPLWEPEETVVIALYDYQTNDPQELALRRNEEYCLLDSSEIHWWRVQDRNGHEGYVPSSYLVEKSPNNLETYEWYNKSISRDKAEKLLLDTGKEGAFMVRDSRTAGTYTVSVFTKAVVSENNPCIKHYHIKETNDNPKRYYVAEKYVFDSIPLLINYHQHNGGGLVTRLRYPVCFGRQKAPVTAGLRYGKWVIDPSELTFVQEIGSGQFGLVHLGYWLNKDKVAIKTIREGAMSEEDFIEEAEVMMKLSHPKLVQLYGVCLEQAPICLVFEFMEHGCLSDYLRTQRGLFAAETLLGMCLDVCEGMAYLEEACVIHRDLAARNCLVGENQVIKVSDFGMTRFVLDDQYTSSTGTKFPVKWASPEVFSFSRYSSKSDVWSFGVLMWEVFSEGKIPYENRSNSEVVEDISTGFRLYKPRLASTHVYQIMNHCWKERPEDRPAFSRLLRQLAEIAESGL
Method: The in vitro kinase assays were performed at Nanosyn utilizing micro-fluidic detection technology. The test compounds were serially pre-diluted in DMSO and added, by the acoustic dispensing (Labcyte® 550), directly to 384 well assay plates into 10 uL of a buffer with enzyme comprising: 100 mM HEPES, pH7.5, 5 mM MgCl2, 0.1% bovine serum albumin, 1 mM DTT, 0.01% Triton X-100 and the enzyme. Final DMSO concentration was maintained at 1% in all samples, including the controls. The reactions were initiated by addition of ATP (to the specified concentration) and the fluorescently labeled peptide substrate to a final concentration of 1 uM, and incubated for 3 hours at 25° C. Following incubation, the reactions were quenched by addition of 40 μL of termination buffer (100 mM HEPES, pH7.5, 0.01% Triton X-100, 50 mM EDTA). Terminated plates were analyzed using Caliper LabChip® 3000 microfluidic electrophoresis instrument (Caliper Life Sciences/Perkin Elmer). The enzymatic modification of the peptide substrate (phosphorylation) results in a change of net charge enabling electrophoretic separation of product from substrate. As substrate and product are separated by electrophoresis, two peaks of fluorescence are observed. Change in the relative fluorescence intensity of the substrate and product peaks was the parameter measured, reflecting enzyme activity. In the presence of inhibitor, the ratio between product and substrate is altered: signal of the product decreases, while the signal of the substrate increases. Activity in each test sample was determined as the product to sum ratio (PSR):P/(S+P), where P is the peak height of the product and S is the peak height of the FAM-cAMP substrate. For each compound, enzyme activity was measured at 12 concentrations spaced by 3× dilution intervals. Negative control samples (0%-inhibition in the absence of inhibitor, DMSO only) and positive control samples (100%-inhibition, in the absence of enzyme or in the presence of control inhibitor) were assembled in replicates of four and were used to calculate %-inhibition values in the presence of compounds. Percent inhibition (Pinh) was determined using the following equation: Pinh=(PSR0%−PSRinh)/(PSR0%−PSR100%)*100, where PSRinh is the product sum ratio in the presence of inhibitor, PSR0% is the product sum ratio in the absence of inhibitor and PSR100% is the product sum ratio in 100%-inhibition control samples. To determine IC50 values, the inhibition curves (Pinh versus inhibitor concentration) were fitted by 4 parameter sigmoid dose-response model using XLfit software (IDBS).

Row | EC50 [1] | EC50 (ITK) | SMILES
1 | < 10 nM | < 10 nM | C=CC(=O)Nc1cccc(-n2c(NC(=O)c3ccno3)nc3cc(CN[C@@H](C)C(C)(C)C)ccc32)c1 [Compound 38]
2 | < 10 nM | < 10 nM | C=CC(=O)Nc1cccc(-n2c(NC(=O)c3ccnn3C)nc3cc(CN[C@@H](C)C(C)(C)C)ccc32)c1 [Compound 28]
3 | < 10 nM | < 10 nM | C=CC(=O)Nc1cccc(-n2c(NC(=O)c3ccc(C(F)F)s3)nc3cc(CN[C@@H](C)C(C)(C)C)ccc32)c1 [Compound 2]
4 | 10 to 100 nM | < 10 nM | C=CC(=O)Nc1cccc(-n2c(NC(=O)c3cccc(C#N)c3)nc3cc(CN[C@@H](C)C(C)(C)C)ccc32)c1 [Compound 9]
5 | < 10 nM | < 10 nM | C=CC(=O)Nc1cccc(-n2c(NC(=O)c3ccc(-c4cnco4)s3)nc3cc(CN[C@@H](C)C(C)(C)C)ccc32)c1 [Compound 25]
